From patent publication US9168259B2 (GRÜNENTHAL GMBH, priority 2010, dated 2015)

Target: T1, KCNQ2/3 channels (Homo sapiens, UniProt O43525+O43526)
T1 construct: expressed in transfected cells
Test: Fluorescence assay using a voltage sensitive dye (fluorimetry)
Type: cell-based
Conditions: CHO-K1 cells expressing KCNQ2/3; for Emax: CHO-K1, plateau effect relative to saturated retigabine (50 μM) = 100%, negative values = antagonistic, read-out: Fluorimetry % efficacy (retigabine = 100%); for EC50: IC50 where % efficacy is negative, read-out: Fluorimetry EC50/IC50

T1 sequence (O43526 whole entry): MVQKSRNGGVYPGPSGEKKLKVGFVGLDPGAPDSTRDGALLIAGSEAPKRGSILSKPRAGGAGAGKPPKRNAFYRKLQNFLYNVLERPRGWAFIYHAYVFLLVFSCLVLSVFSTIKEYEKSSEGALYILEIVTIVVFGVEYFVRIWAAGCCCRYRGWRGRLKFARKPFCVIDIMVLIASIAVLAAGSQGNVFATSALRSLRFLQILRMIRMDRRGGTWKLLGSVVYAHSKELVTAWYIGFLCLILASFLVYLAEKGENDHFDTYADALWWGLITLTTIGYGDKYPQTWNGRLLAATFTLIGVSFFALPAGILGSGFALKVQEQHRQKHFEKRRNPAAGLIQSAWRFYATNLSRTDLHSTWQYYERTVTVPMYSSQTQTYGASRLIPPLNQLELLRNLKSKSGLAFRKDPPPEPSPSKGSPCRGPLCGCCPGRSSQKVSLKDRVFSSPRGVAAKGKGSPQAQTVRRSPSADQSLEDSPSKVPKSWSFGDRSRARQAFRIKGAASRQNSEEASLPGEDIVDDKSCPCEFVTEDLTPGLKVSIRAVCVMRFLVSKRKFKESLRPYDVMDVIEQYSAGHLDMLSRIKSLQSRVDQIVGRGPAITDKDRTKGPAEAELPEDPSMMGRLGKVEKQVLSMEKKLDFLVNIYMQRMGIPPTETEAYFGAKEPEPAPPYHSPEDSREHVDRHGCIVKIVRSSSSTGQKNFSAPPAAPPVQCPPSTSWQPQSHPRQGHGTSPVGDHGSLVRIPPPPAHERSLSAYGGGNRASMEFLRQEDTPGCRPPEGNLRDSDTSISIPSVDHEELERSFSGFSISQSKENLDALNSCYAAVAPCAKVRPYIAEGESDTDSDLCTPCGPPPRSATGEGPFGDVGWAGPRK
T1 sequence (O43525 whole entry): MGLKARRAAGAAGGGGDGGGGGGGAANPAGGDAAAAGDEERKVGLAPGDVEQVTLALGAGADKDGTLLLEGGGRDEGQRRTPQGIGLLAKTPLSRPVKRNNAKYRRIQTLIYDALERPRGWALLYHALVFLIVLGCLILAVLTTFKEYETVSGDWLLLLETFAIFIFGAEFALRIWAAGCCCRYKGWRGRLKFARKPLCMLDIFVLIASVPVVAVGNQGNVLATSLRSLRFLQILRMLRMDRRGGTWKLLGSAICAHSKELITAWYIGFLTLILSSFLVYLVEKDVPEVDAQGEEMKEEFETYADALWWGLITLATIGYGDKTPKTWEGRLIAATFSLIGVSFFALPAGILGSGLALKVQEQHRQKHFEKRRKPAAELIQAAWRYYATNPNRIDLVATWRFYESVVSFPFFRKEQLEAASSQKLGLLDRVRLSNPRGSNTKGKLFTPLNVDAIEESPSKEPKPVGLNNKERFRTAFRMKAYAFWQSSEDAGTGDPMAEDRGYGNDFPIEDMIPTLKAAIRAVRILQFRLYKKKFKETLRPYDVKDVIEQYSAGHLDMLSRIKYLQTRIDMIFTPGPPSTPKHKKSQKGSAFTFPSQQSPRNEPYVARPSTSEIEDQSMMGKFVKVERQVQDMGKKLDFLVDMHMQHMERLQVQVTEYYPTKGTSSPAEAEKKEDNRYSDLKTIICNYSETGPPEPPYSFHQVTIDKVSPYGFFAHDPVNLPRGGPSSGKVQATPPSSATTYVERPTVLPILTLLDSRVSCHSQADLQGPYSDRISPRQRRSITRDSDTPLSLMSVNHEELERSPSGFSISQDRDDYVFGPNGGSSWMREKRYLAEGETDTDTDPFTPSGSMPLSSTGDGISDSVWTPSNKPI

| Structure (SMILES) | Emax [%] | EC50 [nM] |
| --- | --- | --- |
| CCSc1nc(N2CCOC[C@@H]2CO)cc(C)c1C(=O)NCc1cccc(F)c1 [Example 263, 2-Ethylsulfanyl-N-[(3-fluorophenyl)-methyl]-6-[(3S)-3-(hydroxymethyl)-morpholin-4-yl]-4-methyl-pyridine-3-carboxylic acid amide] | 114 | 4140 |
| CCSc1nc(N2CCOC[C@H]2CO)cc(C)c1C(=O)NCc1cccc(F)c1 [Example 264, 2-Ethylsulfanyl-N-[(3-fluorophenyl)-methyl]-6-[(3R)-3-(hydroxymethyl)-morpholin-4-yl]-4-methyl-pyridine-3-carboxylic acid amide] | 184 | 1560 |
| Cc1cc(N2CCOC[C@H]2C)nc(C(C)C)c1C(=O)NCc1ccc(Cl)cc1 [Example 265, N-[(4-Chlorophenyl)-methyl]-2-isopropyl-4-methyl-6-[(3R)-3-methyl-morpholin-4-yl]-pyridine-3-carboxylic acid amide] | 206 | 28 |
| CCCc1nc(N2CCOC[C@H]2C)cc(C)c1C(=O)NCc1ccc(Cl)cc1 [Example 266, N-[(4-Chlorophenyl)-methyl]-4-methyl-6-[(3R)-3-methyl-morpholin-4-yl]-2-propyl-pyridine-3-carboxylic acid amide] | 210 | 57 |
| CCSc1nc(N2CCOCC2)cc(C)c1C(=O)NCCC(O)C(C)(C)C (stereo not drawn) [Example 267, 2-Ethylsulfanyl-N-(3-hydroxy-4,4-dimethyl-pentyl)-4-methyl-6-morpholin-4-yl-pyridine-3-carboxylic acid amide] | 223 | 247 |
| CCSc1nc(N2CCOCC2)cc(C)c1C(=O)NCc1ccc(C#N)c(F)c1 [Example 268, N-[(4-Cyano-3-fluoro-phenyl)-methyl]-2-ethylsulfanyl-4-methyl-6-morpholin-4-yl-pyridine-3-carboxylic acid amide] | 142 | 286 |
| Cc1cc(N2CCOCC2)nc(OCCF)c1C(=O)NCc1ccc(Cl)cc1 [Example 269, N-[(4-Chlorophenyl)-methyl]-2-(2-fluoro-ethoxy)-4-methyl-6-morpholin-4-yl-pyridine-3-carboxylic acid amide] | 119 | 147 |
| Cc1cc(N2CCOCC2)nc(OCC(F)F)c1C(=O)NCc1ccc(Cl)cc1 [Example 270, N-[(4-Chlorophenyl)-methyl]-2-(2,2-difluoro-ethoxy)-4-methyl-6-morpholin-4-yl-pyridine-3-carboxylic acid amide] | 97 | 24 |
| Cc1cc(N2CCOCC2)nc(OCC2CC2)c1C(=O)NCc1ccc(Cl)cc1 [Example 271, N-[(4-Chlorophenyl)-methyl]-2-(cyclopropyl-methoxy)-4-methyl-6-morpholin-4-yl-pyridine-3-carboxylic acid amide] | 128 | 93 |
| Cc1cc(N2CCOCC2)nc(OCC(F)F)c1C(=O)NCc1ccc(F)cc1 [Example 272, 2-(2,2-Difluoro-ethoxy)-N-[(4-fluorophenyl)-methyl]-4-methyl-6-morpholin-4-yl-pyridine-3-carboxylic acid amide] | 96 | 78 |
| CCOc1nc(N2CCOC[C@H]2C)cc(C)c1C(=O)NCc1ccc(Cl)cc1 [Example 273, N-[(4-Chlorophenyl)-methyl]-2-ethoxy-4-methyl-6-[(3R)-3-methyl-morpholin-4-yl]-pyridine-3-carboxylic acid amide] | 163 | 137 |
| CCSc1nc(N2CCO[C@@H](C)C2)cc(C)c1C(=O)NCCCC(C)(C)C [Example 274, N-(4,4-Dimethyl-pentyl)-2-ethylsulfanyl-4-methyl-6-[(2S)-2-methyl-morpholin-4-yl]-pyridine-3-carboxylic acid amide] | 217 | 234 |
| CCSc1nc(N2CCO[C@H](C)C2)cc(C)c1C(=O)NCCCC(C)(C)C [Example 275, N-(4,4-Dimethyl-pentyl)-2-ethylsulfanyl-4-methyl-6-[(2R)-2-methyl-morpholin-4-yl]-pyridine-3-carboxylic acid amide] | 208 | 63 |
| Cc1cc(N2CCOCC2)nc(OCC2CC2)c1C(=O)NCc1ccc(F)cc1 [Example 276, 2-(Cyclopropyl-methoxy)-N-[(4-fluorophenyl)-methyl]-4-methyl-6-morpholin-4-yl-pyridine-3-carboxylic acid amide] | 102 | 143 |
| COC[C@H]1COCCN1c1cc(C)c(C(=O)NCc2ccc(Cl)cc2)c(C(C)C)n1 [Example 277, N-[(4-Chlorophenyl)-methyl]-2-isopropyl-6-[(3S)-3-(methoxymethyl)-morpholin-4-yl]-4-methyl-pyridine-3-carboxylic acid amide] | 129 | 17 |
| CCC(C)Cc1nc(N2CCOCC2)cc(C)c1C(=O)NCCCC(C)(C)C (stereo not drawn) [Example 278, N-(4,4-Dimethyl-pentyl)-4-methyl-2-(2-methyl-butyl)-6-morpholin-4-yl-pyridine-3-carboxylic acid amide] | 225 | 36 |
| CCC(C)(C)c1nc(N2CCOCC2)cc(C)c1C(=O)NCCCC(C)(C)C [Example 279, N-(4,4-Dimethyl-pentyl)-2-(1,1-dimethyl-propyl)-4-methyl-6-morpholin-4-yl-pyridine-3-carboxylic acid amide] | 172 | 430 |
| CCSc1nc(N(C)C2CCCOC2)cc(C)c1C(=O)NCCCC(C)(C)C (stereo not drawn) [Example 280, N-(4,4-Dimethyl-pentyl)-2-ethylsulfanyl-4-methyl-6-(methyl-tetrahydro-pyran-3-yl-amino)-pyridine-3-carboxylic acid amide] | 165 | 302 |

Results, then the molecule that gave them:

| Emax [%] | EC50 [nM] | Structure (SMILES) |
| --- | --- | --- |
| 109 | 311 | CCSc1nc(N2CCOCC2)cc(C)c1C(=O)NCc1ccc([N+](=O)[O-])cc1 [Example 281, 2-Ethylsulfanyl-4-methyl-6-morpholin-4-yl-N-[(4-nitrophenyl)-methyl]-pyridine-3-carboxylic acid amide] |
| 182 | 40 | Cc1cc(N2CCOC[C@H]2C)nc(C2CC2)c1C(=O)NCc1ccc(Cl)cc1 [Example 282, N-[(4-Chlorophenyl)-methyl]-2-cyclopropyl-4-methyl-6-[(3R)-3-methyl-morpholin-4-yl]-pyridine-3-carboxylic acid amide] |
| 22 | – | Cc1cc(N2CCOCC2)nc(OCCN(C)C)c1C(=O)NCc1ccc(Cl)cc1 [Example 283, N-[(4-Chlorophenyl)-methyl]-2-(2-dimethylaminoethyloxy)-4-methyl-6-morpholin-4-yl-pyridine-3-carboxylic acid amide] |
| 94 | 648 | CCSc1nc(N2CCOCC2)cc(C)c1C(=O)NCc1ccc(F)c(OC)c1 [Example 284, 2-Ethylsulfanyl-N-[(4-fluoro-3-methoxy-phenyl)-methyl]-4-methyl-6-morpholin-4-yl-pyridine-3-carboxylic acid amide] |
| 126 | 157 | COC[C@@H]1CN(c2cc(C)c(C(=O)NCc3ccc(Cl)cc3)c(C(C)C)n2)CCO1 [Example 285, N-[(4-Chlorophenyl)-methyl]-2-isopropyl-6-[(2S)-2-(methoxymethyl)-morpholin-4-yl]-4-methyl-pyridine-3-carboxylic acid amide] |
| 198 | 1750 | CCSc1nc(N2CCOCC2)cc(C)c1C(=O)NCCC(O)C(C)C (stereo not drawn) [Example 286, 2-Ethylsulfanyl-N-(3-hydroxy-4-methyl-pentyl)-4-methyl-6-morpholin-4-yl-pyridine-3-carboxylic acid amide] |
| 153 | 971 | CCSc1nc(N2CCOCC2)cc(C)c1C(=O)NCc1ccc(OC)c(F)c1 [Example 287, 2-Ethylsulfanyl-N-[(3-fluoro-4-methoxy-phenyl)-methyl]-4-methyl-6-morpholin-4-yl-pyridine-3-carboxylic acid amide] |
| 138 | 435 | CCSc1nc(N2CCOCC2)cc(C)c1C(=O)NCc1ccc(OC(F)F)cc1 [Example 288, N-[[4-(Difluoro-methoxy)-phenyl]-methyl]-2-ethylsulfanyl-4-methyl-6-morpholin-4-yl-pyridine-3-carboxylic acid amide] |
| 129 | 2820 | CCSc1nc(N2CCOCC2)cc(C)c1C(=O)NCc1ccc2c(c1)COC2 [Example 289, N-(1,3-Dihydro-isobenzofuran-5-yl-methyl)-2-ethylsulfanyl-4-methyl-6-morpholin-4-yl-pyridine-3-carboxylic acid amide] |
| 136 | 314 | COC[C@@H]1CN(c2cc(C)c(C(=O)NCc3ccc(Cl)cc3)c(C3CC3)n2)CCO1 [Example 290, N-[(4-Chlorophenyl)-methyl]-2-cyclopropyl-6-[(2S)-2-(methoxymethyl)-morpholin-4-yl]-4-methyl-pyridine-3-carboxylic acid amide] |
| 53 | 7950 | CCSc1nc(N2CCO[C@H](CO)C2)cc(C)c1C(=O)NCc1cccc(F)c1 [Example 291, 2-Ethylsulfanyl-N-[(3-fluorophenyl)-methyl]-6-[(2S)-2-(hydroxymethyl)-morpholin-4-yl]-4-methyl-pyridine-3-carboxylic acid amide] |
| 32 | – | CCSc1nc(N2CCO[C@@H](CO)C2)cc(C)c1C(=O)NCc1cccc(F)c1 [Example 292, 2-Ethylsulfanyl-N-[(3-fluorophenyl)-methyl]-6-[(2R)-2-(hydroxymethyl)-morpholin-4-yl]-4-methyl-pyridine-3-carboxylic acid amide] |
| 129 | 1030 | CCSc1nc(N(C)CC2CCCO2)cc(C)c1C(=O)NCc1cccc(F)c1 (stereo not drawn) [Example 294, 2-Ethylsulfanyl-N-[(3-fluorophenyl)-methyl]-4-methyl-6-[methyl-(tetrahydro-furan-2-yl-methyl)-amino]-pyridine-3-carboxylic acid amide] |
